Source: publication PMC3058116 (Therapeutic drug monitoring, 2011)

Columns and labels:
[1] = cited from earlier work
[2] = Population pharmacokinetic analysis; format: in vivo, HIV-infected Thai patients
[3] = indinavir model, bootstrap median
[4] = indinavir model, final model estimate

CC(C)(C)NC(=O)[C@@H]1CN(Cc2cccnc2)CCN1C[C@@H](O)C[C@@H](Cc1ccccc1)C(=O)N[C@H]1c2ccccc2C[C@H]1O [IDV, Indinavir]
indinavir AUC associated with an increased risk of developing nephrotoxicity ([1]; Thai patients receiving IDV/r 800/100 mg twice daily): > 60000 µg·h/mL | indinavir CL/F higher in male patients compared to female patients ([1]; after adjusting for concomitant ritonavir use): 30% | indinavir bioavailability higher in female patients than in males ([1]; analysis including only nine women): 48% | Inter-individual variability IIV (CL/F) [2, 3]: 0.29 | Inter-individual variability IIV (Ktr) [2, 3]: 0.352 | Ktr (= Ka within a transit model) [2, 3]: 2.37 h⁻¹ | Residual variability, proportional σ (IDV 400 mg) [2, 3]: 0.42 | Residual variability, proportional σ (IDV 600 mg) [2, 3]: 0.29 | Inter-individual variability IIV (CL/F) [2, 4]: 0.30 | Inter-individual variability IIV (Ktr) [2, 4]: 0.38 | Ktr (= Ka within a transit model) [2, 4]: 2.32 h⁻¹ | Residual variability, proportional σ (IDV 400 mg) [2, 4]: 0.42 | Residual variability, proportional σ (IDV 600 mg) [2, 4]: 0.29 | Inter-individual variability IIV (Vd/F) ([2]; indinavir model, final model, ω^2(V/F) = θpV/F × ω^2(CL/F)): 0.23 | interindividual variability of CL/F ([2]; indinavir, final population estimate): 30%

CC(C)c1nc(CN(C)C(=O)N[C@H](C(=O)N[C@@H](Cc2ccccc2)C[C@H](O)[C@H](Cc2ccccc2)NC(=O)OCc2cncs2)C(C)C)cs1 [RTV, ritonavir]
Residual variability σ (Proportional) ([2]; both, human, in vivo): 0.36 | interindividual variability of CL/F ([2]; both, human, in vivo): 48% | interindividual variability of Vd/F ([2]; both, human, in vivo): 45% | θIDVDOSE-600mg (factor on ritonavir CL/F) ([2]; both, human, in vivo): 0.78 | θSEX-Female (factor on ritonavir CL/F) ([2]; both, human, in vivo): 0.77 | CL/F ([2]; human, in vivo): 10.1 L/h | CL/F ([2]; human, in vivo, 100 mg): 10.1 L/h
